We go through 14 compounds from ChEMBL document CHEMBL1201862, “PubChem BioAssay data set” (2004).

SMILES strings stand for the structures.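 Briefly, cells in 96-well plates were exposed to five compound concentrations for 48 h, and endpoints were estimated by linear interpolation. GI50 is the concentration that inhibits growth by half.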 Activity calls are given as the source filed them. No stated cut-off is given here; in the data, active = GI50 up to about 1.1 µM and inactive = higher. Non-standard residues stand in square brackets, D forms with d. Residues, ends and D or L forms follow the SMILES beside them. *: point of attachment. NMeF = CN[CH](Cc1ccccc1)C(=O)O; NMeV = CN[CH](C(=O)O)C(C)C; Boc = CC(C)(C)OC(=O)*

Test systems include ACHN; EKVX; HCT-116; K562; LOX IMVI; NCI-H460; OVCAR-3; OVCAR-4; OVCAR-8; SF-539; SK-MEL-28; SK-MEL-5; TK-10; UACC-257; RPMI-8226; HOP-92.
Common to all, as to test: inhibition of tumour cell growth, NCI panel, 48 h

For `NC(CCC(=O)NC(CSSCCCCS(=O)O)C(=O)NCC(=O)O)C(=O)O` (stereo unspecified), the GI50 with ACHN, in the assay on EKVX, in the assay with HCT-116, in the assay with K562, in the assay on LOX IMVI and with NCI-H460 was > 100 µM (inactive) throughout. Besides, the GI50 with OVCAR-3, with OVCAR-4, with OVCAR-8, with SF-539, with SK-MEL-28 and in the assay on SK-MEL-5 was > 100 µM (inactive) each time. The GI50 in the assay with TK-10 and in the assay with UACC-257 was > 100 µM (inactive) throughout.

As for `CN(C)c1ccc(/C=C/C=C\c2cc(/C=C/C=C/c3ccc(N(C)C)cc3)[s+]c3ccccc23)cc1.[O-][Cl+3]([O-])([O-])[O-]`, the GI50 in the assay with EKVX is > 100 µM (inactive); in the assay on HCT-116 it was 78.5 µM (inactive); in the assay on K562, > 100 µM (inactive); with LOX IMVI, 20.1 µM (inactive); in the assay with NCI-H460, > 100 µM (inactive); with OVCAR-3, 31.8 µM (inactive). Besides, the GI50 in the assay with OVCAR-4 is 10 µM (inactive); in the assay on OVCAR-8, 57.9 µM (inactive); in the assay on RPMI-8226, 55.3 µM (inactive); in the assay with SF-539, > 100 µM (inactive); in the assay with SK-MEL-28, 14.2 µM (inactive); in the assay on SK-MEL-5 it was 43.8 µM (inactive). In addition, the GI50 was > 100 µM (inactive) in the assay on TK-10 and 59.4 µM (inactive) with UACC-257.

Turning to `CCCCCCCCC/C=C1\CCC(CN(C)C)C1=O` (stereo unspecified), the GI50 with ACHN was 2.2 µM (inactive); in the assay on EKVX, 2.47 µM (inactive); in the assay with HCT-116, 1.8 µM (inactive); in the assay with HOP-92, 2.13 µM (inactive); in the assay with K562 it was 1.86 µM (inactive); in the assay with LOX IMVI, 1.22 µM (inactive). The GI50 was 3.43 µM (inactive) in the assay with NCI-H460; 1.69 µM (inactive) in the assay on OVCAR-8; 0.0619 µM (active) in the assay on RPMI-8226; 1.79 µM (inactive) in the assay with SF-539; 2.03 µM (inactive) in the assay with SK-MEL-28; 2.05 µM (inactive) in the assay on SK-MEL-5. The values for the GI50 in the assay on TK-10 and in the assay on UACC-257 were 2.18 µM (inactive) and 1.69 µM (inactive), respectively.

With `[N-]=[N+]=Nc1c(Br)c(=O)[nH]c(=O)n1COCCO`, the GI50 with ACHN, in the assay on HCT-116, in the assay with HOP-92, in the assay on K562, in the assay with LOX IMVI and with NCI-H460 was > 100 µM (inactive) throughout. For the same compound, the GI50 in the assay with OVCAR-3, in the assay on OVCAR-4, in the assay with OVCAR-8, in the assay with SF-539, in the assay with SK-MEL-28 and in the assay with SK-MEL-5 was > 100 µM (inactive) each time. Further, the GI50 in the assay with TK-10 and in the assay with UACC-257 was > 100 µM (inactive) each time.

For the compound `CCOC(=O)c1ccc(N2C(=O)Cc3ccccc3C2=O)cc1`, the GI50 in the assay on ACHN, in the assay with EKVX, in the assay with HCT-116, in the assay with K562, with OVCAR-3 and in the assay on OVCAR-8 was > 100 µM (inactive) throughout. In addition, the GI50 with RPMI-8226, in the assay with SF-539, in the assay on SK-MEL-28, with SK-MEL-5, in the assay with TK-10 and in the assay on UACC-257 was > 100 µM (inactive) throughout.

For the compound `COc1ccc2nc3cc(Cl)ccc3c(Sc3ccc(NC(C)=O)cc3)c2c1`, the GI50 was 4.86 µM (inactive) in the assay on ACHN; 17.9 µM (inactive) with HCT-116; 9.71 µM (inactive) with K562; 5.73 µM (inactive) in the assay with LOX IMVI; > 26.3 µM (inactive) with NCI-H460; > 24.4 µM (inactive) in the assay on OVCAR-4. The GI50 with OVCAR-8 was 8.28 µM (inactive); in the assay on RPMI-8226, 26.3 µM (inactive); in the assay on SF-539, 12.3 µM (inactive); with SK-MEL-28, 12.8 µM (inactive); in the assay on SK-MEL-5, > 29.3 µM (inactive); in the assay with TK-10, > 36.2 µM (inactive). Besides, in the assay on UACC-257, the GI50 is 17.4 µM (inactive).

For the compound `Cc1ccc(-c2nc3ccccc3c(=O)n2NC2OC(CO)C(O)C(O)C2O)cc1` (stereo unspecified), the GI50 in the assay on ACHN, with EKVX, in the assay with HCT-116, in the assay on HOP-92, in the assay with K562 and in the assay on NCI-H460 was > 100 µM (inactive) each time. Moreover, the GI50 with OVCAR-3, in the assay with OVCAR-4, in the assay on OVCAR-8, in the assay on RPMI-8226, with SF-539 and in the assay with SK-MEL-28 was > 100 µM (inactive) in each case. Moreover, the GI50 in the assay on SK-MEL-5, in the assay on TK-10 and with UACC-257 was > 100 µM (inactive) in each case.

For the compound `[N-]=[N+]=Nc1cc(=O)oc2ccccc12`, the GI50 with ACHN, in the assay on HCT-116, with K562, in the assay on LOX IMVI, with NCI-H460 and in the assay on OVCAR-4 was > 100 µM (inactive) in each case. The GI50 in the assay with OVCAR-8, in the assay on RPMI-8226, in the assay on SF-539, in the assay with SK-MEL-28, in the assay on SK-MEL-5 and in the assay on TK-10 was > 100 µM (inactive) throughout. In addition, the GI50 with UACC-257 is > 100 µM (inactive).

With `COc1ccc2ccccc2c1C1=NC(C)(C)CO1`, the GI50 in the assay with ACHN is > 100 µM (inactive); in the assay on EKVX, > 100 µM (inactive); with HCT-116, > 100 µM (inactive); in the assay on HOP-92 it was 98.9 µM (inactive); in the assay on K562, > 100 µM (inactive); with NCI-H460 it was > 100 µM (inactive). Moreover, the GI50 in the assay on OVCAR-3, in the assay with OVCAR-4, with OVCAR-8, in the assay on RPMI-8226, in the assay with SF-539 and in the assay with SK-MEL-28 was > 100 µM (inactive) each time. In addition, the GI50 with SK-MEL-5, in the assay with TK-10 and with UACC-257 was > 100 µM (inactive) each time.

With `CC(C)C(NC(=O)OC(C)(C)C)C(=O)N(C)C(Cc1ccccc1)C(=O)N(C)C(C(=O)N(C)C(C(=O)O)C(C)C)C(C)C` (stereo unspecified) (Boc-V[NMeF][NMeV][NMeV]-OH; configuration not given here), the GI50 in the assay with ACHN, in the assay on EKVX, with HCT-116, with K562, in the assay with LOX IMVI and with NCI-H460 was > 100 µM (inactive) each time. For the same compound, the GI50 in the assay with OVCAR-3, in the assay with OVCAR-8, in the assay with RPMI-8226, in the assay with SF-539, in the assay with SK-MEL-28 and in the assay with SK-MEL-5 was > 100 µM (inactive) throughout. For the same compound, the GI50 in the assay on TK-10 and with UACC-257 was > 100 µM (inactive) in each case.

For the compound `O=C1C2=C(CCC2)Nc2cccc3ncn1c23`, the GI50 in the assay with ACHN is 33.2 µM (inactive); in the assay with EKVX, > 100 µM (inactive); with HCT-116, 34 µM (inactive); with K562, > 100 µM (inactive); in the assay on LOX IMVI, 24.5 µM (inactive); in the assay with NCI-H460, 33.7 µM (inactive). The GI50 was > 100 µM (inactive) with OVCAR-8; > 100 µM (inactive) in the assay on RPMI-8226; > 100 µM (inactive) in the assay on SF-539; 61.9 µM (inactive) with SK-MEL-28; 69.5 µM (inactive) in the assay with SK-MEL-5; 14.7 µM (inactive) in the assay on TK-10. Moreover, the GI50 in the assay on UACC-257 was 64.7 µM (inactive).

For `O=C(CC(=O)N1N=C(c2ccccc2)C(/N=N/c2ccc(Cl)cc2)C1=O)Nc1ccccc1Cl` (stereo unspecified), the GI50 was 15.6 µM (inactive) in the assay on ACHN; 27.6 µM (inactive) in the assay on EKVX; 23.6 µM (inactive) with HCT-116; 36.7 µM (inactive) with K562; 26.2 µM (inactive) in the assay with LOX IMVI; 42.1 µM (inactive) in the assay with NCI-H460. In addition, the GI50 was 24.3 µM (inactive) in the assay with OVCAR-3; 16 µM (inactive) in the assay on OVCAR-4; 27.6 µM (inactive) in the assay on RPMI-8226; 24.4 µM (inactive) with SF-539; 20.6 µM (inactive) in the assay with SK-MEL-28; 18.1 µM (inactive) in the assay with SK-MEL-5. Moreover, the GI50 in the assay on TK-10 is 16.6 µM (inactive).

As to `O=C1c2ccccc2C(=O)c2[nH]c(Cc3ccccc3F)nc21`, the GI50 in the assay on ACHN is 53.5 µM (inactive); in the assay with EKVX, > 100 µM (inactive); in the assay on HCT-116 it was 41.4 µM (inactive); in the assay with HOP-92 it was 68.1 µM (inactive); in the assay with K562 it was > 100 µM (inactive); with NCI-H460 it was 33.9 µM (inactive). Further, the GI50 with OVCAR-3 is 14.5 µM (inactive); in the assay on OVCAR-4, 28.1 µM (inactive); with OVCAR-8, 48.3 µM (inactive); with RPMI-8226, 57.4 µM (inactive); with SF-539, 31.2 µM (inactive); with SK-MEL-28 it was > 100 µM (inactive). The GI50 with TK-10 was 29.3 µM (inactive); in the assay on UACC-257 it was 44.9 µM (inactive).

As to `CCC1CCc2c(c(=O)oc3c2cc(OC)c2cccc(OC)c23)C1` (stereo unspecified), the GI50 is 87.7 µM (inactive) with ACHN; > 100 µM (inactive) in the assay on EKVX; 33.4 µM (inactive) in the assay with HCT-116; 40.9 µM (inactive) in the assay with K562; 51.1 µM (inactive) with NCI-H460; 76 µM (inactive) with OVCAR-4. For the same compound, the GI50 is 50.1 µM (inactive) in the assay on OVCAR-8; 49.5 µM (inactive) with RPMI-8226; 58.6 µM (inactive) with SF-539; > 100 µM (inactive) in the assay with SK-MEL-28; 34.8 µM (inactive) in the assay on SK-MEL-5; > 100 µM (inactive) in the assay on TK-10. Also, the GI50 in the assay on UACC-257 is 67.1 µM (inactive).
